# Target: Aβ(1-42) (Homo sapiens, UniProt P05067)
# Assay: Aggregation inhibition by paper-based ECL assay with [Ru
# Assay type: biochemical
# Sequence of Aβ(1-42) (P05067 672-713): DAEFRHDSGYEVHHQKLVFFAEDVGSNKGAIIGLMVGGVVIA
structure (smiles),measurement,value
"Nc1c(/N=N/c2ccc(-c3ccc(/N=N/c4cc(S(=O)(=O)O)c5ccccc5c4N)cc3)cc2)cc(S(=O)(=O)O)c2ccccc12 [CR, Congo red]",IC50,1070 nM
